By ED50 is commonly meant the dose that gives a 50% effect, or the effect in half of the subjects. Usually TD50 stands for the dose at which the toxic effect under study appears in half of the subjects.

Read-outs that look alike come from different tables or passages of the source. Marks after values point to notes of the source that are not given here. Where only a bound is given, the exact number is not on record here.

The subject of data set [1] is Maximal electroshock seizures (MES). Nature of the data set: Maximal electroshock seizure test (MES). Format: in vivo, mice. The following applies: Mus musculus, read-out: MES ED50. The procedure: (§1) in the eye prior to application of the electrodes so as to prevent the death of the animal. Protection in this test was defined as the abolition of the hind limb tonic extension component of the seizure. The Subcutaneous Pentylenetetrazole (Metrazol^R) Seizure Threshold Test (sc Met) entailed the administration of 85 mg/kg of pentylenetetrazole as a 0.5% solution subcutaneously in the posterior midline. […] Protection was defined as the failure to observe even a threshold seizure (a single episode of clonic spasms of at least 5 sec duration). The effects of the compounds on forced and spontaneous motor activity were evaluated in mice using the Rotorod Test (Tox) or, in some cases, as indicated herein, a horizontal screen assay (HS). The animal was placed on a one-inch diameter knurled plastic rod rotating at 6 rpm after the administration of the drug. Normal mice can remain on a rod rotating at this speed indefinitely. Neurologic toxicity was defined as the failure of the animal to remain on the rod for one minute. The MES and so Met Tests were conducted on single animals while four mice were utilized for the Tox Test. The dose effect behavior of the compounds was evaluated using the above-described procedures by the administration of varying dose levels, treating normally eight mice at each dose. Table I includes an evaluation of the Median Effective Dose (ED50) and the Median Toxic Dose (TD50) of representative compounds. Mice were tested with varying doses of the anticonvulsant to define the limits of complete protection (or toxicity) and no protection (or no toxicity), as well as three points in between these limits. The Median Effective Dose (ED50) was defined as the dose which produced the Pharmacology. […] N-Acetyl-D,L-alanine-N'-benzylamide was tested at […] as well. […] Maximal electroshock seizures (MES) were elicited with a 60 cycle alternating current of 50 mA intensity (5-7 times that necessary to elicit minimal electroschock seizures) delivered for 0.2 sec via corneal electrodes. A drop of 0.9% saline was instilled desired endpoint in 50% of the animals. The Median Toxicity Dose (TD50) was the dose which elicited evidence of minimal neurological toxicity in 50% of the animals.
On the technique in general: In the maximal electroshock model the usual endpoint is tonic extension of the hind limbs.

Another data set deals with pentylenetetrazole. Nature of the data set: Subcutaneous Pentylenetetrazole (Metrazol) Seizure Threshold Test (sc Met). Format: in vivo, mice. The note with it: for ED50: Mus musculus, sc, 0.5 h, read-out: sc Met ED50. The procedure: as §1
Data set [2] relates to male Carworth Farms #1 mice. The experiment in a line: Rotorod Test (Tox), neurologic toxicity. Format: in vivo. The note with it: Median Toxic Dose, comparison drugs.
Description: The effects of the compounds on forced and spontaneous motor activity were evaluated in mice using the Rotorod Test (Tox) or, in some cases, as indicated herein, a horizontal screen assay (HS). The animal was placed on a one-inch diameter knurled plastic rod rotating at 6 rpm after the administration of the drug. Normal mice can remain on a rod rotating at this speed indefinitely. Neurologic toxicity was defined as the failure of the animal to remain on the rod for one minute. The MES and so Met Tests were conducted on single animals while four mice were utilized for the Tox Test. The dose effect behavior of the compounds was evaluated using the above-described procedures by the administration of varying dose levels, treating normally eight mice at each dose. […] Mice were tested with varying doses of the anticonvulsant to define the limits of complete protection (or toxicity) and no protection (or no toxicity), as well as three points in between these limits. […] The Median Toxicity Dose (TD50) was the dose which elicited evidence of minimal neurological toxicity in 50% of the animals.
The nature of data set [3]: Horizontal screen assay (HS), neurologic toxicity. Format: in vivo. The note with it: mouse; mice; Median Toxic Dose; evaluated using a horizontal screen assay (HS) as opposed to the Rotorod Test; read-out: Tox TD50. On the procedure:
as §1
The TD50 of D,L-α-acetamido-N-benzyl-3-thiopheneacetamide, D,L-α-acetamido-N-benzyl-2-thiopheneacetamide, D,L-α-acetamido-N-benzyl-2-furanacetamide, D,L-α-acetamido-N-benzyl-2-pyrroleacetamide, D,L-2-acetamido-N-benzyl-2-ethoxyacetamide and D,L-2-acetamido-N-benzyl-2-methoxyacetamide were evaluated using a horizontal screen assay (HS) as opposed to the Rotorod Test.
(The rotarod test checks motor coordination on a turning rod.)

[4] abbreviates: mice, 50 mA, 60 cycle, 0.2 sec via corneal electrodes, abolition of hind limb tonic extension.
Setting [5] is: mice, 85 mg/kg pentylenetetrazole subcutaneously, observed for 30 minutes.

Consider `NC(=O)NC(=O)Cc1ccccc1` [phenacemide], for which the results for the ED50 (in data set [1] (setting [4]); in the data set with pentylenetetrazole (setting [5])) were 87 mg/kg and 116 mg/kg, respectively. Besides, in data set [2], the “Tox TD50” value is given as 421 (337-549)* mg/kg.
As to `CC(=O)NC(C(=O)NCc1ccccc1)c1ccsc1` (racemic) [D,L-α-Acetamido-N-benzyl-3-thiopheneacetamide], the ED50 in data set [1] is 87.8 mg/kg. In addition, in data set [3], the TD50 was more than 100 mg/kg.
The like results for `COC(NC(C)=O)C(=O)NCc1ccccc1` (racemic) [D,L-2-Acetamido-N-benzyl-2-methoxyacetamide] were, in that order, 98.3 mg/kg and less than 300 mg/kg.
The like results for `CC(=O)NC(C(=O)NCc1ccccc1)c1ccc[nH]1` (racemic) [D,L-α-Acetamido-N-benzyl-2-pyrroleacetamide] were, in that order, 16.1 mg/kg and less than 100 mg/kg.
As for `CCC1(c2ccccc2)NC(=O)N(C)C1=O` (stereo not shown) [mephenytoin], the figures for the ED50 (in data set [1] (setting [4]); with pentylenetetrazole (setting [5])) were 61 mg/kg and 31 mg/kg, respectively. Moreover, the “Tox TD50” value in data set [2] was found to be 154 mg/kg.
Turning to `O=C1NC(=O)C(c2ccccc2)(c2ccccc2)N1` [phenytoin, reference compound], the median effective dose (ED50) in data set [1] (setting [4]) amounted to 10 mg/kg. Besides, in the data set with pentylenetetrazole (setting [5]), the “sc Met ED50” value is reported as “not effective”.
Consider `CC(=O)NC(C(=O)NCc1ccccc1)c1cccs1` (racemic) [D,L-α-Acetamido-N-benzyl-2-thiopheneacetamide], for which the 50% effective dose (ED50) in data set [1] was found to be 44.8 mg/kg. In addition, in data set [3], the TD50 lay in the range of 30 to 100 mg/kg.
For `CCC1(c2ccccc2)C(=O)NC(=O)NC1=O` [phenobarbital, reference compound], the ED50 is 22 mg/kg in data set [1] and 13 mg/kg with pentylenetetrazole.
For the compound `CC(=O)NC(C(=O)NCc1ccccc1)c1ccco1` (racemic) [D,L-α-Acetamido-N-benzyl-2-furanacetamide], the ED50 in data set [1] turned out to be 10.3 mg/kg. Moreover, in data set [3], the TD50 is 40 mg/kg.
The like results for `CCOC(NC(C)=O)C(=O)NCc1ccccc1` (racemic) [D,L-2-Acetamido-N-benzyl-2-ethoxyacetamide] were, in that order, 62 mg/kg and more than 112 mg/kg.
